According to US9801843B2, “Self-emulsifying composition of ω3 fatty acid” (priority 2013, dated 2017):

Test: Pharmacokinetics in beagles (Test Example 5)
Format: in vivo
Conditions: plasma EPA, male beagles fasted, oral, 600 mg EPA-E, baseline-corrected
Procedure: The composition of Example 14 was orally administered to 6 male beagles (at the age of 2 to 6 years with the body weight of 13 kg, 3 Marshall beagles and 3 Nosan beagles) under fasting conditions, and blood EPA concentration was evaluated. The test animals had been fasted since 18 hours or more before the administration, and each animal was administered with the composition in an amount corresponding to 600 mg of the EPA-E. Blood was collected before the administration, and 0.5, 1, 1.5, 2, 3, 4, 6, 8, and 24 hours after the administration, and plasma was separated to measure plasma EPA concentration by LC/MS/MS (method in which a sample is isolated by liquid chromatography, then subjected to mass spectrometry to conduct separation and measurement thereon). The control group was administered with the EPA-E stock solution encapsulated in a capsule. […] In the calculation of each parameter, correction was made by subtracting the blood EPA concentration before the administration from the measured blood concentration.

CC/C=C\C/C=C\C/C=C\C/C=C\C/C=C\CCCC(=O)OCC [EPA-E Stock solution, Ethyl eicosapentaenoate ester]
AUC0-2: 14.4 µg·h/mL | AUC0-24: 188 µg·h/mL | Cmax: 16600 ng/mL
